According to patent publication US9302004B2, “Phenalene-1-one derivatives, method for producing same and use thereof” (TRIOPTOTEC GMBH, priority 2011, dated 2016):
Where a name gives a salt, the structure may show the parent alone.

Experiments:
Type in all cases: cell-based
[1] = tested on: Staphylococcus aureus (ATCC number: 25923); test: Phototoxicity test (photodynamic activity, CFU assay) against gram-positive bacteria; conditions: for Required concentration in order to achieve a reduction by ≧ 3 log10 steps: S. aureus, 15 min incubation in darkness, then irradiation 12.3 J/cm^2 blue light (Emax 418 nm), CFU/ml 24 h after; for antimicrobial action compared with the starting substance perinaphthenone: from Table 1 (S. aureus and E. coli, sentence does not separate them), reduction of the germ count by 3 log10 steps; for times lower concentration needed to achieve a reduction by 3 log10 steps, compared with perinaphthenone: phototoxicity test, Table 1 (S. aureus and E. coli, sentence does not separate them)
Description: (§1) A sample of the bacterial strain Staphylococcus aureus (ATCC number: 25923) or Escherichia coli (ATCC number: 25922) was extracted from a cryogenically frozen culture, isolated on Müller-Hinton agar plates, and cultured under aerobic conditions at 37° C. in an overnight culture. 10 ml Müller-Hinton liquid medium was then inoculated with a smear of the bacterial culture (individual colony) and incubated overnight at 37° C. The thus-obtained bacterial suspension was centrifuged for 15 min at 3000 rpm and the obtained bacterial pellet was resuspended in 10 ml sterile PBS. The optical density of the bacterial suspensions for the phototoxicity tests was OD600nm=0.6, which corresponds to a bacterial count of ˜[…] bacteria per ml. The biochemical analysis and resistance determination of the bacteria were carried out with the VITEK2 system according to the guidelines M100-S14 of the NCCLS (National Committee for Clinical Laboratory Standards guidelines 2004).
(§2) 200 μl of a bacterial suspension (bacterial density: 10^8-10^12/ml) was incubated with 200 μl each of different concentrations of the photosensitizers listed in Table 1 at 37° C. in darkness for 15 minutes. The bacteria were then washed twice with PBS, resuspended in 200 μl PBS, the entire volume was transferred to a 96-well microtiter plate and then irradiated.
(§3) For the sensitization, the UV 236 lamp (emission 380-480 nm, with an emission maximum Emax: 418 nm) from Waldmann Medizintechnik was used and the plates lying on the light source were irradiated from below, in order to prevent scattering through the liquid. The applied light dose was 12.3 J/cm^2. As controls, bacterial suspensions that were irradiated, not irradiated and only incubated with photosensitizer were entrained, and incubated both with and without photosensitizer.
(§4) The CFU assay was then carried out to determine the colony-forming units per ml (CFU). For this, a series of dilutions from 10^−1 to 10^−9 of the corresponding bacterial suspension was produced. 100 μl was then plated onto Müller-Hinton plates and incubated at 37° C. for 24 h. The number of surviving colonies was then determined by counting and plotted on a graph as colony-forming units (CFU) per ml against the respectively used photosensitizer concentration.

[2] = tested on: Escherichia coli (ATCC number: 25922); test: Phototoxicity test (photodynamic activity, CFU assay) against gram-negative bacteria; conditions: E. coli; 15 min incubation in darkness, then irradiation 12.3 J/cm^2 blue light (Emax 418 nm); CFU/ml 24 h after
Description: as §1, §2, §3, §4

[3] = tested on: S. aureus; test: Surface disinfection of catheter tubes, cell count after illumination; conditions: catheter sections with dried S. aureus; 5 min in darkness, 12.3 J/cm^2 blue light (Emax 418 nm) for 30 min
Description: 5-cm long catheter sections were filled with 1 ml of a stable S. aureus solution (1 E+12 cfu/ml) and incubated overnight at 37° C. After drying-out of the solution, in each case 2 ml of a solution of PBS which contained a corresponding concentration (0, 1, 10, 50, 80 and 100 μM) of the compounds produced in Examples 2), 4b), 5b), 7) and 10) and 1H-phenalene-1-one was sprayed. After a short exposure time of 5 minutes in darkness, the catheter sections were illuminated with a light dose of 12.3 J/cm^2 with blue light (Emax: 418 nm) for a period of 30 min.
As a control, in each case non-illuminated catheter sections were used, to which the corresponding concentrations (0, 1, 10, 50, 80 and 100 μM) of the compounds produced in Examples 1b)-f) and 1H-phenalene-1-one were applied.
To determine the cell count, the illuminated and non-illuminated catheter sections were filled with 1 ml PBS and ultrasounded. Growth medium was added to the washing solution in different dilutions (10^0 to 10^7) and the solution was smeared onto agar plates. The cell count was performed after 24 h of incubation at 37° C.

Compound: O=C1C(C[n+]2ccccc2)=Cc2cccc3cccc1c23 [Example 7]
- Required concentration in order to achieve a reduction by ≧ 3 log10 steps [1]: 80 μM
- antimicrobial action compared with the starting substance perinaphthenone [1]: improved antimicrobial action
- times lower concentration needed to achieve a reduction by 3 log10 steps, compared with perinaphthenone [1]: approximately 10 times
- Required concentration in order to achieve a reduction by ≧ 3 log10 steps [2]: 10 μM
- times lower concentration needed to achieve a reduction by 3 log10 steps, compared with perinaphthenone [3]: approximately 10 times

Compound: CC[N+](CC)(CC)CC1=Cc2cccc3cccc(c23)C1=O [Example 10, 2-((N,N,N-Triethyl)aminomethyl)-1H-phenalene-1-one hydrochloride]
- Required concentration in order to achieve a reduction by ≧ 3 log10 steps [1]: 50 μM for S. aureus; 50 μM for E. coli
- antimicrobial action compared with the starting substance perinaphthenone [1]: improved antimicrobial action
- times lower concentration needed to achieve a reduction by 3 log10 steps, compared with perinaphthenone [1]: approximately 10 times
- Required concentration in order to achieve a reduction by ≧ 3 log10 steps [2]: 50 μM for S. aureus; 50 μM for E. coli
- times lower concentration needed to achieve a reduction by 3 log10 steps, compared with perinaphthenone [3]: approximately 10 times

Compound: NCC1=Cc2cccc3cccc(c23)C1=O [Example 2, 2-Aminomethyl-1H-phenalene-1-one]
- Required concentration in order to achieve a reduction by ≧ 3 log10 steps [1]: 1 μM
- antimicrobial action compared with the starting substance perinaphthenone [1]: improved antimicrobial action
- times lower concentration needed to achieve a reduction by 3 log10 steps, compared with perinaphthenone [1]: approximately 10 times
- Required concentration in order to achieve a reduction by ≧ 3 log10 steps [2]: 50 μM
- times lower concentration needed to achieve a reduction by 3 log10 steps, compared with perinaphthenone [3]: approximately 10 times

Compound: O=C1C=Cc2cccc3cccc1c23 [Comparison, perinaphthenone, reference compound]
- Required concentration in order to achieve a reduction by ≧ 3 log10 steps [1]: 200 μM
- Required concentration in order to achieve a reduction by ≧ 3 log10 steps [2]: 300 μM

Compound: NCCOCCOCC1=Cc2cccc3cccc(c23)C1=O [Example 5b, 2-((2-(2-Aminoethoxy)ethoxy)methyl)-1H-phenalene-1-one hydrochloride]
- Required concentration in order to achieve a reduction by ≧ 3 log10 steps [1]: 50 μM
- antimicrobial action compared with the starting substance perinaphthenone [1]: improved antimicrobial action
- times lower concentration needed to achieve a reduction by 3 log10 steps, compared with perinaphthenone [1]: approximately 10 times
- Required concentration in order to achieve a reduction by ≧ 3 log10 steps [2]: 80 μM
- times lower concentration needed to achieve a reduction by 3 log10 steps, compared with perinaphthenone [3]: approximately 10 times

Compound: NCCOCC1=Cc2cccc3cccc(c23)C1=O [Example 4b, 2-((2-Aminoethoxy)methyl)-1H-phenalene-1-one hydrochloride]
- Required concentration in order to achieve a reduction by ≧ 3 log10 steps [1]: 50 μM
- antimicrobial action compared with the starting substance perinaphthenone [1]: improved antimicrobial action
- times lower concentration needed to achieve a reduction by 3 log10 steps, compared with perinaphthenone [1]: approximately 10 times
- Required concentration in order to achieve a reduction by ≧ 3 log10 steps [2]: 300 μM
- times lower concentration needed to achieve a reduction by 3 log10 steps, compared with perinaphthenone [3]: approximately 10 times
